Measurements as given in patent US20060079453A1, “Hla binding peptides and their uses” (priority 2002, published 2006).
Read-outs that look alike come from different tables or passages of the source. No end group written: not given here.

What was measured:
Experiment in all cases: biochemical
Format in all cases: binding
[1] = target: HLA-A*2301 (Homo sapiens, UniProt P04439, D101N/D140Y/D185E/E176V/E190D/F33S/G103R/G107R/H175R/I119L/I121M/I306V/K168Q/K335N/L105A/L300P/N151K/N90K/P307H/Q86E/Q94H/R106L/R138H/R89G/T104I/T345S/V100E/W191G/Y123F)
[2] = target: HLA-A*6802 (Homo sapiens, UniProt P04439, A269V/D140Y/D185E/E176V/E277Q/E87N/F33Y/G231S/I121R/I166T/I218V/L180W/L300P/L318F/N151K/P208A/P217A/Q86R/R138H/R169H/S129P/T345S/V36M)
[3] = target: HLA-A*0202 (Homo sapiens, UniProt P04439, D140Y/D185E/D98H/E176V/E277Q/G131W/G231S/I119L/I121R/I166T/I218V/L180W/L300P/L318F/N151K/N90K/P208A/P217A/Q67R/Q86G/Q94H/R138H/R169H/T345S)
[4] = target: HLA-A*0203 (Homo sapiens, UniProt P04439, A173T/D140Y/D185E/D98H/E277Q/G131W/G231S/I119V/I121R/I166T/I218V/L180W/L300P/L318F/N151K/N90K/P208A/P217A/Q86G/Q94H/R138H/R169H/T345S)
[5] = target: HLA-A*0206 (Homo sapiens, UniProt P04439, D140Y/D185E/D98H/E176V/E277Q/F33Y/G131W/G231S/I119V/I121R/I166T/I218V/L300P/L318F/N151K/N90K/P208A/P217A/Q86G/Q94H/R138H/R169H/T345S)
[6] = target: HLA-A*0201 (Homo sapiens, UniProt P04439, D140Y/D185E/D98H/E176V/E277Q/G131W/G231S/I119V/I121R/I166T/I218V/L300P/L318F/N151K/N90K/P208A/P217A/Q86G/Q94H/R138H/R169H/T345S)
[7] = A*6802 binding affinity (expressed as an IC50)
[8] = A*0202 binding affinity (expressed as an IC50)
[9] = A*0203 binding affinity (expressed as an IC50)
[10] = A*0206 binding affinity (expressed as an IC50)
[11] = A*0201 binding affinity (expressed as an IC50)

Compound	IC50 [1] [nM]	IC50 [2, 7] [nM]	IC50 [3, 8] [nM]	IC50 [4, 9] [nM]	IC50 [5, 10] [nM]	IC50 [6, 11] [nM]	IC50 [2] [nM]	IC50 [3] [nM]	IC50 [4] [nM]	IC50 [5] [nM]	IC50 [6] [nM]	IC50 ([1]; read-out: A*2301 binding affinity (IC50)) [nM]
DFFLKSKFNI	304											
QLFEDKYAL [QLFEDKYAL]		2980	1.8	380	2010	646						
VLAGPGPGVTL		2640	2.4	94	7200	1120						
KLTPLCVSL		5950	2.4	240	16	67						
LLGPGPGV		5620	49	123	93	25						
EILDLWVYHV							163	569	1870	2230	496	
VLAEAMSKV		329	1.8	1.4	93	230						
VLAEAMSRA							229	0.88	1	20	127	
VLAEAMATA		33	1.4	0.73	8.6	6.7						
SLLGPGPGAV		795	17	2.6	642	95						
KLTPFCVTL							11800	0.37	28	78	87	
FLPSGPGPGV		40	1.2	3.4	64	21						
TYCCKCDSTL												30
RYQDPQNYEL	124											
VVQAGFFLV		617	79	2500	81	440						
MTSNPPVPV		1.1	29	0.8	81	22						
CC(C)C[C@H](NC(=O)[C@H](CCCNC(=N)N)NC(=O)[C@H](CC(C)C)NC(=O)[C@@H](NC(=O)[C@H](C)NC(=O)[C@@H](NC(=O)CNC(=O)[C@H](CC(=O)O)NC(=O)[C@H](CC(C)C)NC(=O)[C@@H](N)CC(C)C)[C@@H](C)O)[C@@H](C)O)C(=O)O		> 421000	1.9	201	841	180						
VLAKEGPGPGL		51000	6.9	37	59000	1890						
GLIYSKKRQEV							> 14300	57	152	> 8560	8970	
FMGVIYIMI		14500	2.1	26	98	13						
ELVSEFSRV		23	969	53	197	8180						
FLPGPGPGSV		332	18	4	665	98						
MTGNPSIPV							0.57	1.1	0.43	257	16	
IISAVVGFL		77	1	4.8	234	747						
RTLHDLCQA		61600	34	678	96	8120						
ATYGIIVPV		21	2	2.8	5	3.2						
LQLPPLERLTV							> 61100	4540	6270	52	159	
YLLTGPGPGI		5680	15	59	60	42						
YLGPGPGAGI		315	1	4.2	548	161						
ILWQVDRM							> 19500	67	3000	11300	1750	
